# Test results as given in patent US20240174618A1, “SUBSTITUTED (2-HETEROARYLOXYPHENYL)SULFONATES, SALTS THEREOF AND THEIR USE AS HERBICIDAL AGENTS” (Bayer Aktiengesellschaft, priority 2021, published 2024).
# Legend:
# Assay type in all cases: in vivo
# [1] = system: Echinochloa crus-galli (ECHCG); assay: A. Herbicidal pre-emergence efficacy, ECHCG; conditions: scored visually after about 3 weeks vs untreated controls
# How it was run: (§1)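 Applied before emergence onto covering soil at rates of 1280 g/ha or less, using 600 L/ha spray water with 0.5% additive. Scoring: visual % efficacy after ~3 weeks, greenhouse.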
# [2] = system: Matricaria inodora (MATIN); assay: A. Herbicidal pre-emergence efficacy, MATIN
# How it was run: as §1
# [3] = system: Alopecurus myosuroides (ALOMY); assay: B. Herbicidal post-emergence efficacy, ALOMY; conditions: 1280 g/ha, rated visually after about 3 weeks
# Description: (§2) Seeds of mono- and dicotyledonous weed plants were placed in plastic pots in sandy loam soil (doubly sown with in each case one species of mono- or dicotyledonous weed plants per pot), covered with soil and cultivated in a greenhouse under controlled growth conditions. 2 to 3 weeks after sowing, the test plants were treated at the one-leaf stage. The compounds of the invention, formulated in the form of wettable powders (WP) or as emulsion concentrates (EC), were applied onto the green parts of the plants as aqueous suspension or emulsion with addition of 0.5% additive at a water application rate of 600 liters per hectare (converted). After the test plants had been kept in the greenhouse under optimum growth conditions for about 3 weeks, the activity of the preparations was rated visually in comparison to untreated controls.
# (§3) For example, • 100% efficacy=plants have died, • 0% efficacy=like untreated control plants
# (§4) Tables B1a to B12c below show the effects of selected inventive compounds of the general formula (I) according to table 1 on various harmful plants at an application rate corresponding to 1280 g/ha or less, which were obtained by the experimental procedure mentioned above.
# Lolium rigidum (LOLRI) = assay: B. Herbicidal post-emergence efficacy, LOLRI
# Description: as §2, §3, §4
# [4] = system: Matricaria inodora (MATIN); assay: C. Herbicidal pre-emergence efficacy, MATIN; conditions: scored after about 3 weeks
# How it was run: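 Pre-emergence test: formulated compounds sprayed as aqueous suspension or emulsion with 0.5% additive at 600 l/ha onto soil covering sown seeds, at rates corresponding to 320 g/ha or less. After about 3 weeks in greenhouse, efficacy scored visually as percent versus untreated controls (100% = plants dead).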
# [5] = system: Pharbitis purpurea (PHBPU); assay: C. Herbicidal pre-emergence efficacy, PHBPU; conditions: scored after about 3 weeks
# Text: Seeds of monocotyledonous and dicotyledonous weed plants and crop plants were placed in plastic or organic planting pots and covered with soil. The compounds of the invention, formulated in the form of wettable powders (WP) or as emulsion concentrates (EC), were then applied to the surface of the covering soil as aqueous suspension or emulsion with addition of 0.5% additive at a water application rate equivalent to 600 l/ha (converted). After the treatment, the pots were placed in a greenhouse and kept under good growth conditions for the test plants. After about 3 weeks, the efficacy of the preparations was scored visually in comparison with untreated controls as percentages. For example, • 100% efficacy=plants have died, • 0% efficacy=like untreated control plants.
# Tables C1a to C14b below show the effects of selected compounds of the general formula (I) according to table 1 on various harmful plants at an application rate corresponding to 320 g/ha or less, which were obtained by the experimental procedure mentioned above.
# Zea mays (ZEAMX) = assay: D. Pre-emergence effect on useful plants, ZEAMX; conditions: useful plant, application rate 80 g/ha
# How it was run: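 Seeds sown in pots and covered with soil; WP or EC formulations sprayed on the soil surface as aqueous suspension/emulsion with 0.5% additive at 600 l/ha water. Plants grown in greenhouse; crop damage scored visually after about 3 weeks as % versus untreated controls (100% = dead, 0% = like control).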
# [6] = system: Alopecurus myosuroides (ALOMY); assay: E. Herbicidal post-emergence efficacy, ALOMY; conditions: application rate 320 g/ha
# How it was run: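 Compounds applied at 320 g/ha or less as a foliar spray (600 l/ha, 0.5% additive) to one-leaf-stage greenhouse plants grown in sandy loam. Damage is visually scored in percent relative to untreated plants after about 3 weeks.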
# [7] = system: Digitaria sanguinalis (DIGSA); assay: E. Herbicidal post-emergence efficacy, DIGSA; conditions: application rate 320 g/ha
# Description: Seeds of monocotyledonous and dicotyledonous weeds and crop plants were placed in sandy loam in plastic or organic planting pots, covered with soil and cultivated in a greenhouse under controlled growth conditions. 2 to 3 weeks after sowing, the test plants were treated at the one-leaf stage. The compounds of the invention, formulated in the form of wettable powders (WP) or as emulsion concentrates (EC), were then sprayed onto the green parts of the plants as aqueous suspension or emulsion with addition of 0.5% additive at a water application rate of 600 l/ha (converted). After the test plants had been kept in the greenhouse under optimum growth conditions for about 3 weeks, the activity of the preparations was rated visually in comparison to untreated controls.
# For example, • 100% efficacy=plants have died, • 0% action=like untreated control plants.
# Tables E1a to E12b below show the effects of selected compounds of the general formula (I) according to table 1 on various harmful plants at an application rate corresponding to 320 g/ha or less, which were obtained by the experimental procedure mentioned above.
compound,measurement,setting,value
O=S(=O)(CCC(F)(F)F)Oc1c(F)cccc1Oc1ncc(Cl)cn1 [Example I-48],Pre-emergence efficacy against ECHCG,[1]; 80 g/ha,90%
same,Pre-emergence efficacy against ECHCG,[1]; 320 g/ha,90%
same,Pre-emergence efficacy against ECHCG,[1]; 1280 g/ha,90%
same,Pre-emergence efficacy against MATIN,"[2]; 320 g/ha, scored visually after about 3 weeks vs untreated controls",100%
same,Pre-emergence efficacy against MATIN,"[2]; pre-emergence, dosage 1280 g/ha",100%
same,Post-emergence efficacy against ALOMY in %,[3],90%
same,Post-emergence efficacy against LOLRI,Lolium rigidum (LOLRI); 320 g/ha,90%
same,Post-emergence efficacy against LOLRI,Lolium rigidum (LOLRI); 1280 g/ha,90%
same,Pre-emergence efficacy against MATIN,[4]; 80 g/ha,100%
same,Pre-emergence efficacy against MATIN,[4]; 320 g/ha,100%
same,Pre-emergence efficacy against PHBPU,[5]; 80 g/ha,100%
same,Pre-emergence efficacy against PHBPU,[5]; 320 g/ha,100%
same,Pre-emergence efficacy against ZEAMX in %,Zea mays (ZEAMX),0%
same,Post-emergence efficacy against ALOMY in %,[6],100%
same,Post-emergence efficacy against DIGSA in %,[7],100%
